Assay results from ChEMBL document CHEMBL3881526, “Selective androgen receptor modulators and method of use thereof” (2007).
Activity calls are given as the source filed them. The rule behind the calls is not given here.

How the values were obtained:
Homo sapiens [1] = assay: Effect on regional fat level in healthy human at 30 mg administered daily via mouth for 14 days (reference value: 0.64%); format: functional
Rattus norvegicus [2] = assay: Reduction in serum cholesterol in female Sprague-Dawley rat at 100 mg/kg, po qd administered for 28 days; format: functional, organism-based
Homo sapiens [3] = assay: Effect on tissue fat level in truncal obese human at 30 mg administered daily via mouth for 14 days (reference value: 0.69%); format: functional, Adipose tissue
Rattus norvegicus [4] = organism: Rattus norvegicus; assay: Effect on serum LH in intact Sprague-Dawley rat at 0.3 mg/day measured for 14 days (reference value: 0.281 +/- 0.126 ng/ml); format: functional
Homo sapiens [5] = assay: Effect on regional fat level in healthy human at 1 mg administered daily via mouth for 14 days (reference value: 0.64%); format: functional
Homo sapiens [6] = assay: Effect on tissue weight in healthy human at 3 mg administered daily via mouth for 14 days (reference value: -8.24 g); format: functional
Rattus norvegicus [7] = assay: Effect on serum FSH in ORX Sprague-Dawley rat at 1 mg/day administered 9 days post ORX via oral gavage for 14 days (reference value: 43.45 +/- 4.97 ng/ml); format: functional
Rattus norvegicus [8] = assay: Effect on serum LH in ORX Sprague-Dawley rat at 0.01 mg/day administered 9 days post ORX via oral gavage for 14 days (reference value: 9.66 +/- 1.13 ng/ml); format: functional
Rattus norvegicus [9] = assay: Androgenic activity in ORX Sprague-Dawley rat assessed as increase in prostate weight at 0.3 mg/day measured after delayed dosing administered 9 days post ORX via oral gavage for 14 days relative to intact control; format: functional
Rattus norvegicus [10] = organism: Rattus norvegicus; assay: Effect on serum LH in intact Sprague-Dawley rat at 1 mg/day measured for 14 days (reference value: 0.281 +/- 0.126 ng/ml); format: functional
Rattus norvegicus [11] = organism: Rattus norvegicus; assay: Effect on serum FSH in intact Sprague-Dawley rat at 0.75 mg/day measured for 14 days (reference value: 6.40 +/- 1.58 ng/ml); format: functional
Bone marrow cell [12] = assay: Induction of differentiation of rat primary bone marrow cells toward osteoblast lineage assessed as ALP activity at 10 nM to 100 nM by spectrophotometric analysis; format: functional, cell-based
Rattus norvegicus [13] = assay: Effect on serum LH in ORX Sprague-Dawley rat at 0.75 mg/day administered 9 days post ORX via oral gavage for 14 days (reference value: 9.66 +/- 1.13 ng/ml); format: functional
Rattus norvegicus [14] = assay: Androgenic activity in ORX Sprague-Dawley rat assessed as increase in prostate weight at 0.01 mg/day measured after delayed dosing administered 9 days post ORX via oral gavage for 14 days relative to intact control; format: functional
Rattus norvegicus [15] = assay: Induction of […] bone density in ovary intact Sprague-Dawley rat at 3 mg/day administered daily by oral gavage measured after 45 days (reference value: 379 mg/mm'3); format: functional
Homo sapiens [16] = assay: Effect on lean weight level in truncal obese human at 3 mg administered daily via mouth for 14 days (reference value: 436.47 g); format: functional
Rattus norvegicus [17] = organism: Rattus norvegicus; assay: Effect on serum LH in intact Sprague-Dawley rat at 0.1 mg/day measured for 14 days (reference value: 0.281 +/- 0.126 ng/ml); format: functional
Rattus norvegicus [18] = assay: Androgenic activity in ORX Sprague-Dawley rat assessed as restoration in seminal vesicle weight at 1 mg/day measured after delayed dosing administered 9 days post ORX via oral gavage for 14 days relative to intact control; format: functional
Rattus norvegicus [19] = assay: Anabolic activity in ORX Sprague-Dawley rat assessed as increase in levator ani muscle weight at 0.1 mg/day measured after delayed dosing administered 9 days post ORX via oral gavage for 14 days relative to intact control; format: functional
Rattus norvegicus [20] = assay: Effect on serum FSH in ORX Sprague-Dawley rat at 0.1 mg/day administered 9 days post ORX via oral gavage for 14 days (reference value: 43.45 +/- 4.97 ng/ml); format: functional
Rattus norvegicus [21] = assay: Androgenic activity in ORX Sprague-Dawley rat assessed as increase in prostate weight at 0.75 mg/day measured after delayed dosing administered 9 days post ORX via oral gavage for 14 days relative to intact control; format: functional
Rattus norvegicus [22] = assay: Anabolic activity in ORX Sprague-Dawley rat assessed as restoration of levator ani muscle weight measured after delayed dosing administered 9 days post ORX via oral gavage for 14 days; format: functional
Rattus norvegicus [23] = assay: Induction of […] bone density in OVX Sprague-Dawley rat at 3 mg/day administered daily by oral gavage measured after 45 days (reference value: 215 mg/mm'3); format: functional
[24] = Tmax in human plasma at 1 to 100 mg administered as solid oral dosage; format: ADME, cell-free
Homo sapiens [25] = assay: Effect on fat weight in healthy human at 10 mg administered daily via mouth for 14 days (reference value: 436 g); format: functional
Rattus norvegicus [26] = assay: Androgenic activity in intact Sprague-Dawley rat assessed as increase in prostate weight at 0.01 mg/day administered via oral gavage for 14 days relative to intact control; format: functional
Homo sapiens [27] = assay: Effect on bone mineral content in healthy human at 3 mg administered daily via mouth for 14 days (reference value: 36.47 g); format: functional
Rattus norvegicus [28] = assay: Increase in femoral maximum load in OVX Sprague-Dawley rat at 3 mg/day administered daily co-treated with 1 mg/day alendronate by oral gavage measured after 45 days; format: functional
Bone marrow cell [29] = assay: Induction of differentiation of rat primary bone marrow cells toward osteoblast lineage assessed as ALP activity at 1 uM by spectrophotometric analysis; format: functional, cell-based
Rattus norvegicus [30] = assay: Reduction in serum cholesterol in male Sprague-Dawley rat at 3 mg/kg, po qd administered for 28 days; format: functional; set-up: scale not given: the % may be the effect or the level left
Homo sapiens [31] = assay: Effect on tissue weight in healthy human at 10 mg administered daily via mouth for 14 days (reference value: -8.24 g); format: functional
Rattus norvegicus [32] = assay: Androgenic activity in ORX Sprague-Dawley rat assessed as restoration in seminal vesicle weight at 0.01 mg/day measured after delayed dosing administered 9 days post ORX via oral gavage for 14 days relative to intact control; format: functional
Rattus norvegicus [33] = assay: Androgenic activity in ORX Sprague-Dawley rat assessed as restoration of prostate weight measured after delayed dosing administered 9 days post ORX via oral gavage for 14 days; format: functional
Homo sapiens [34] = assay: Effect on tissue fat level in healthy human at 10 mg administered daily via mouth for 14 days (reference value: 0.69%); format: functional, Adipose tissue
Rattus norvegicus [35] = assay: Effect on serum LH in ORX Sprague-Dawley rat at 0.3 mg/day administered 9 days post ORX via oral gavage for 14 days (reference value: 9.66 +/- 1.13 ng/ml); format: functional
Homo sapiens [36] = assay: Effect on lean weight level in healthy human at 3 mg administered daily via mouth for 14 days (reference value: 436.47 g); format: functional
Rattus norvegicus [37] = organism: Rattus norvegicus; assay: Effect on serum LH in intact Sprague-Dawley rat at 0.75 mg/day measured for 14 days (reference value: 0.281 +/- 0.126 ng/ml); format: functional
Homo sapiens [38] = assay: Effect on fat weight in healthy human at 3 mg administered daily via mouth for 14 days (reference value: 436 g); format: functional
Rattus norvegicus [39] = assay: Androgenic activity in ORX Sprague-Dawley rat assessed as restoration in seminal vesicle weight at 0.3 mg/day measured after delayed dosing administered 9 days post ORX via oral gavage for 14 days relative to intact control; format: functional
[40] = Tmax in human plasma at 1 to 100 mg administered as PEG300-based oral solution; format: ADME, cell-free
Homo sapiens [41] = assay: Effect on regional fat level in healthy human at 3 mg administered daily via mouth for 14 days (reference value: 0.64%); format: functional
Rattus norvegicus [42] = organism: Rattus norvegicus; assay: Effect on serum FSH in intact Sprague-Dawley rat at 1 mg/day measured for 14 days (reference value: 6.40 +/- 1.58 ng/ml); format: functional
Homo sapiens [43] = assay: Effect on lean weight level in truncal obese human at 30 mg administered daily via mouth for 14 days (reference value: 436.47 g); format: functional
Rattus norvegicus [44] = organism: Rattus norvegicus; assay: Effect on serum FSH in intact Sprague-Dawley rat at 0.1 mg/day measured for 14 days (reference value: 6.40 +/- 1.58 ng/ml); format: functional
Homo sapiens [45] = assay: Effect on lean weight level in healthy human at 10 mg administered daily via mouth for 14 days (reference value: 436.47 g); format: functional
Rattus norvegicus [46] = assay: Androgenic activity in ORX Sprague-Dawley rat assessed as restoration in seminal vesicle weight at 0.03 mg/day measured after delayed dosing administered 9 days post ORX via oral gavage for 14 days relative to intact control; format: functional
Rattus norvegicus [47] = assay: Effect on serum LH in ORX Sprague-Dawley rat at 1 mg/day administered 9 days post ORX via oral gavage for 14 days (reference value: 9.66 +/- 1.13 ng/ml); format: functional
[48] = Drug uptake in human plasma at 1 to 100 mg administered as PEG300-based solution after 72 hrs; format: ADME, cell-free
Homo sapiens [49] = assay: Effect on fat weight in healthy human at 1 mg administered daily via mouth for 14 days (reference value: 436 g); format: functional
[50] = Terminal half life in human at 1 to 100 mg administered as PEG300-based solution after 72 hrs; format: ADME; settings: in vivo, read-out: beta t1/2
Rattus norvegicus [51] = assay: Androgenic activity in ORX Sprague-Dawley rat assessed as restoration of prostate weight at 100 ug/day delivered at constant rate for 14 days via subcutaneous osmotic pumps; format: functional
Rattus norvegicus [52] = assay: Androgenic activity in ORX Sprague-Dawley rat assessed as restoration of seminal vesicles weight at 100 ug/day delivered at constant rate for 14 days via subcutaneous osmotic pumps; format: functional
Rattus norvegicus [53] = assay: Suppression of serum FSH in ORX Sprague-Dawley rat at 0.1 to 1 mg/day delivered at constant rate for 14 days via subcutaneous osmotic pumps; format: functional
Rattus norvegicus [54] = assay: Anabolic activity in ORX Sprague-Dawley rat assessed as restoration of levator ani muscle weight at 100 ug/day delivered at constant rate for 14 days via subcutaneous osmotic pumps; format: functional, tissue-based
Rattus norvegicus [55] = assay: Androgenic activity in ORX Sprague-Dawley rat assessed as restoration of prostate weight at 0.1 to 1 ug/day delivered at constant rate for 14 days via subcutaneous osmotic pumps; format: functional
Rattus norvegicus [56] = assay: Androgenic activity in ORX Sprague-Dawley rat assessed as restoration of seminal vesicles weight at 0.1 to 1 ug/day delivered at constant rate for 14 days via subcutaneous osmotic pumps; format: functional
Rattus norvegicus [57] = assay: Anabolic activity in ORX Sprague-Dawley rat assessed as restoration of levator ani muscle weight at 0.1 to 1 ug/day delivered at constant rate for 14 days via subcutaneous osmotic pumps; format: functional

SMILES: CC(O)(COc1ccc(C#N)cc1)C(=O)Nc1ccc(C#N)c(C(F)(F)F)c1 (stereo not drawn)
- Activity (Homo sapiens [1]): 0.95%
- Activity (Rattus norvegicus [2]): Active
- Activity (Homo sapiens [3]): -0.13%
- Activity (Rattus norvegicus [4]): Below limit of detection
- Activity (Homo sapiens [5]): 0.23%
- Activity (Homo sapiens [6]): 728.89 g
- Activity (Rattus norvegicus [7]): 6.33 ng/mL
- Activity (Rattus norvegicus [8]): 8.45 ng/mL
- Activity (Rattus norvegicus [9]): 50%
- Activity (Rattus norvegicus [10]): Below limit of detection
- Activity (Rattus norvegicus [11]): 4.3 ng/mL
- Activity (Bone marrow cell [12]): Active
- Activity (Rattus norvegicus [13]): Below limit of detection
- Activity (Rattus norvegicus [14]): 9%
- Activity (Rattus norvegicus [15]): 398 mg/mm3
- Activity (Homo sapiens [16]): 1569.44 g
- Activity (Rattus norvegicus [17]): 0.177 ng/mL
- Activity (Rattus norvegicus [18]): 67%
- Activity (Rattus norvegicus [19]): 103%
- Activity (Rattus norvegicus [20]): 20.69 ng/mL
- Activity (Rattus norvegicus [21]): 62%
- ED50 (Rattus norvegicus [22]): 0.013 mg/kg
- Activity (Rattus norvegicus [23]): 406 mg/mm3
- Tmax [24]: 3.2 to 3.9 h
- Activity (Homo sapiens [25]): 197.44 g
- Activity (Rattus norvegicus [26]): Active
- Activity (Homo sapiens [27]): -32.22 g
- Activity (Rattus norvegicus [28]): 207 N
- Activity (Bone marrow cell [29]): Active
- Activity (Rattus norvegicus [30]): 30%
- Activity (Homo sapiens [31]): 566.22 g
- Activity (Rattus norvegicus [32]): 7%
- ED50 (Rattus norvegicus [33]): 0.22 mg/kg
- Emax (Rattus norvegicus [33]): 75%
- Activity (Homo sapiens [34]): 0.1%
- Activity (Rattus norvegicus [35]): Below limit of detection
- Activity (Homo sapiens [36]): 752.11 g
- Activity (Rattus norvegicus [37]): Below limit of detection
- Activity (Homo sapiens [38]): -22.67 g
- Activity (Rattus norvegicus [39]): 49%
- Tmax [40]: 0.8 to 2.3 h
- Activity (Homo sapiens [41]): -0.22%
- Activity (Rattus norvegicus [42]): 4.38 ng/mL
- Activity (Homo sapiens [43]): 261 g
- Activity (Rattus norvegicus [44]): 6.6 ng/mL
- Activity (Homo sapiens [45]): 368.67 g
- Activity (Rattus norvegicus [46]): 9%
- Activity (Rattus norvegicus [47]): Below limit of detection
- Drug uptake [48]: Active
- Activity (Homo sapiens [49]): 197.89 g
- half-life [50]: 19 to 22 h

SMILES: CCC(=O)O[C@H]1CC[C@H]2[C@@H]3CCC4=CC(=O)CC[C@]4(C)[C@H]3CC[C@]12C
- Activity (Rattus norvegicus [51]): Active
- Activity (Rattus norvegicus [52]): Active
- Activity (Rattus norvegicus [53]): Active
- Activity (Rattus norvegicus [54]): Active

SMILES: C[C@](O)(COc1ccc(I)cc1)C(=O)Nc1ccc([N+](=O)[O-])c(C(F)(F)F)c1
- Activity (Rattus norvegicus [55]): <40%
- Activity (Rattus norvegicus [56]): <40%
- Activity (Rattus norvegicus [57]): Active

SMILES: C[C@]12CCC(=O)C[C@@H]1CC[C@@H]1[C@@H]2CC[C@]2(C)[C@@H](O)CC[C@@H]12
- Activity (Bone marrow cell [29]): Active

SMILES: C[C@](O)(COc1ccc(Cl)cc1)C(=O)Nc1ccc(C#N)c(C(F)(F)F)c1
- Activity (Rattus norvegicus [55]): Dose-dependent effect
- Activity (Rattus norvegicus [56]): Dose-dependent effect
- Activity (Rattus norvegicus [57]): Active

SMILES: C[C@](O)(COc1ccc(Br)cc1)C(=O)Nc1ccc([N+](=O)[O-])c(C(F)(F)F)c1
- Activity (Rattus norvegicus [55]): <40%
- Activity (Rattus norvegicus [56]): <40%
- Activity (Rattus norvegicus [57]): Active

SMILES: C[C@](O)(COc1ccc(Cl)cc1)C(=O)Nc1ccc([N+](=O)[O-])c(C(F)(F)F)c1
- Activity (Rattus norvegicus [55]): <20%
- Activity (Rattus norvegicus [56]): <20%
- Activity (Rattus norvegicus [57]): Active
